In EP0208962B1, “Combination preparations from thrombocyte aggregation inhibitors, and their use” (HOECHST AKTIENGESELLSCHAFT, priority 1985, dated 1987):
“Also recorded” adds a separate entry of the source.

Legend:
Humanthrombozyten [1] = test: Induced aggregation of human platelets in vitro (Method 1, platelet-rich plasma, Born aggregometer); format: cell-based; settings: result in words; Tilsuprost compared with Prostacyclin
Source text: Methode 1 - Induzierte Aggregation von Humanthrombozyten in vitro
Gesund erscheinenden männlichen und weiblichen Freiwilligen, die im vorangegangenen Zeitraum von 10 Tagen keine Medikamente eingenommen haben, wird durch vorsichtige Kanülierung der Antekubitalvene Blut entnommen, das sofort mit Natriumzitrat (ad 0,38%) stabilisiert wird. Durch 15minütiges Zentrifugieren bei 140 x g erhält man im Überstand plättchenreiches Plasma (PRP), dessen Thrombozytengehalt im Bereich 2,5 - 3,5·10⁺⁸ /ml (Coulter Counter) liegen soll. Die Plättchenaggregation wird optisch durch Messung der Lichttransmission im Born'schen Aggregometer verfolgt. Das Gesamtvolumen des Testansatzes beträgt 0,25 ml. Die Vorinkubationszeit mit dem Prüfpräparat beträgt 10 min bei 37°C, die Aggregationsinduktion erfolgt sodann mit 2 · 10⁻⁴ mol/l Arachidonsäure oder 1,7 µg/ml Kollagen. Das Prüfpräparat wird an fünf verschiedenen Spendern getestet. Aus den jeweiligen maximalen Aggregationsamplituden werden Dosis-Wirkungskurven erstellt und graphisch die arithmetisch gemittelten ED₅₀ (mol/l)-Werte bestimmt. Die Messungen erfolgen im Zeitraum von 1-6 Stunden nach Blutentnahme.

Humanthrombozyten [2] = test: Cyclo AMP determination in human platelets (Method 3, 3H-adenine labelling); format: cell-based; settings: result in words
Protocol: Methode 3 - Cyclo AMP-Bestimmung in Humanthrombozyten
Die Methode folgt in allen Einzelheiten der Vorschrift in Nature (London) 292 (1981) 364: Statt Kaninchenthrombozyten wurde jedoch menschliches Thrombozytenkonzentrat mit ³H-Adenin bei 20°C für 90 min inkubiert. Das überschüssige Adenin wird, wie in Nature beschrieben, entfernt, die Wirkstoffe (s. Tab. 2) zugesetzt und erneut 5 min (37°C) inkubiert. Das gebildete ³H-cyclo AMP wird in der bekannten Weise abgetrennt und durch Radioaktivitätsmessung quantifiziert.

Row | SMILES | Hemmstoffe der Aggregation von Humanthrombozyten (Humanthrombozyten [1]) | cyclo AMP-Stimulierung in Humanthrombozyten (Humanthrombozyten [2])
1 | CCCCC[C@H](O)/C=C/[C@@H]1[C@H]2C/C(=C/CCCC(=O)O)O[C@H]2C[C@H]1O [Prostacyclin, reference compound] | äquipotent | 
2 | CCCCCC(O)C=CC1C(O)CC2N=C(SCCCCC(=O)O)CC21 (stereo not drawn) [Tilsuprost] | äquipotent | keine signifikante Stimulierung; also recorded: keine signifikante stimulierende Wirkung
